Measured values as given in patent US5958907A, “Pharmaceutical compositions and uses of inorganic pyrophosphates” (The University of Iowa Research Foundation, priority 1997, dated 1999).
Like-named read-outs stand apart in the source and are kept apart here.

Columns and labels:
CFTR [1] = conditions: cited from earlier work
[2] = test system: purinergic receptors in the airway epithelium; conditions: in vitro; cited from earlier work
[3] = cited from earlier work
wild-type CFTR = molecular target: T1, wild-type CFTR (Homo sapiens, UniProt P13569); test: Single channel excised inside-out patch-clamp and burst analysis, wild-type CFTR; assay type: cell-based; conditions: for frequency of prolonged bursts compared with PPi / bursts of activity: PPi analogs at 5 mM; for bursts of activity: C127 cell patches with a single active channel
T1 construct: excised inside-out patches with ATP and PKA

CFTR Cl^- channel [4] = molecular target: T2, CFTR Cl^- channel (Homo sapiens, UniProt P13569)
[5] = molecular target: endogenous CFTR in the apical membrane of T-84 intestinal epithelial monolayers (Homo sapiens, UniProt P13569)
CFTR-ΔF508 = conditions: 5 mM PPi, 75 nM PKA, 0.3 mM ATP
CFTR [6] = conditions: artificial lipid bilayers; cited from earlier work
human CFTR = conditions: [α-32P]8-N3ATP 30 αM, PPi in mM, 60 s UV irradiation; relative to control without PPi
Experimental: Photolabeling of membrane-associated CFTR was performed as previously described (Travis, S. M. et al. (1993) J. Biol. Chem. 268:15336-15339). […] Membranes were prepared by differential centrifugation and resuspended in 20 mM HEPES, pH 7.5, 50 mM NaCl, 3 mM MgSO4, with 2 μg/ml each of leupeptin, aprotinin, and pepstatin. Membrane-associated CFTR was phosphorylated prior to photolabeling by incubation with 100 nM PKA and 0.1 mM ATP in buffer containing 10 m MgCl2 and 50 mM 1,4-piperazine diethane sulfonic acid, pH 6.8 for 20 min at 30° C., then diluted in 12 volumes buffer containing 20 mM tris(hydroxymethyl)aminomethane, pH 7.5, 0.2 mM EGTA and 1 μM calyculin A. Membranes were collected by centrifugation and resuspended at a concentration of 2.5 mg protein/ml in the same buffer.
Photolabeling was performed by preincubating membranes (50 μg membrane protein/sample) on ice with [α-^32 P]8-N3ATP (30 αM, 6-12 Ci/mmol) and PPi (in mM). After 60 s UV irradiation, CFTR was solubilized and immunoprecipitated as described (Travis, S. M. et al. (1993) J. Biol. Chem. 268:15336-15339) using antibodies raised against the R domain (M13-1, 0.3 μg/sample) and against the C terminus (M1-4, 10 μg/sample). Immunocomplexes were analyzed by SDS-PAGE and incorporation of [α-^32 P]8-N3ATP was quantitated with an AMBIS radioanalytic imaging system (AMBIS Systems, Inc., San Diego, Calif.).

CFTR channel = CFTR channel (Homo sapiens, UniProt P13569); conditions: 5 mM PPi
Experimental: Maximum likelihood analysis and kinetic modeling were performed as described (Winter, M. C. et al. (1994) Biophys. J. 66:1398-1403). Briefly, unfiltered single channel data were digitized on a microcomputer (Apple Macintosh, Apple Computer, Inc., Cupertine, Calif.) equipped with a multifunctional data acquisition board (NB-MIO-16) and LabVIEW 2 software (National Instruments, Austin, Tex.) at 5 kHz following filtering with an 8-pole Bessel filter (Frequency Devices Inc., Haverhill, Mass.) at a comer frequency of 1 kHz with subsequent digital filtering at 500 Hz. Previous work has shown that a linear three state model (C1 .rarw.→C2 .rarw.→O) best describes the kinetics of CFTR channel activity (Winter, M. C. et al. (1994) Biophys. J. 66:1398-1403). The Maple 5 symbolic algebra program (Waterloo Maple Software, Waterloo, Canada) was used to derive the open and closed time probability density functions for this model by solving the matrix equations in terms of the rate constants. The resulting equations were used in LabVIEW 2 to determine the set of rate constants which yielded the maximum likelihood for the open and closed times observed with different experimental interventions.
It has been previously shown that the activity of single phosphorylated CFTR channels can be described by a linear three state model (Winter, M. C. et al. (1994) Biophys. J. 66:1398-1403), and this model has been used to describe how ATP, ADP, and inorganic phosphate alter the rate constants which describe transitions between states (Carson, M. R. et al., 1994 Biophys. J (In Press); Winter, M. C. et al., 1994 Biophys. J. 66:1398-1403). […] The rate constants (β1, β2, α1, and α2) describe the rate of transition between each state.

CFTR Cl^- channel [7] = molecular target: T2, CFTR Cl^- channel; conditions: external addition of 5 mM PPi, n=4
Experimental: To determine if inorganic pyrophosphate (PPi) would alter CFTR Cl^- channel activity, 5 mM PPi was added to an excised, inside-out membrane patch containing many CFTR channels which had been phosphorylated by PKA.

sodium channels = conditions: aerosolized, initial results; cited from earlier work

Chain of endogenous CFTR in the apical membrane of T-84 intestinal epithelial monolayers (P13569 whole entry): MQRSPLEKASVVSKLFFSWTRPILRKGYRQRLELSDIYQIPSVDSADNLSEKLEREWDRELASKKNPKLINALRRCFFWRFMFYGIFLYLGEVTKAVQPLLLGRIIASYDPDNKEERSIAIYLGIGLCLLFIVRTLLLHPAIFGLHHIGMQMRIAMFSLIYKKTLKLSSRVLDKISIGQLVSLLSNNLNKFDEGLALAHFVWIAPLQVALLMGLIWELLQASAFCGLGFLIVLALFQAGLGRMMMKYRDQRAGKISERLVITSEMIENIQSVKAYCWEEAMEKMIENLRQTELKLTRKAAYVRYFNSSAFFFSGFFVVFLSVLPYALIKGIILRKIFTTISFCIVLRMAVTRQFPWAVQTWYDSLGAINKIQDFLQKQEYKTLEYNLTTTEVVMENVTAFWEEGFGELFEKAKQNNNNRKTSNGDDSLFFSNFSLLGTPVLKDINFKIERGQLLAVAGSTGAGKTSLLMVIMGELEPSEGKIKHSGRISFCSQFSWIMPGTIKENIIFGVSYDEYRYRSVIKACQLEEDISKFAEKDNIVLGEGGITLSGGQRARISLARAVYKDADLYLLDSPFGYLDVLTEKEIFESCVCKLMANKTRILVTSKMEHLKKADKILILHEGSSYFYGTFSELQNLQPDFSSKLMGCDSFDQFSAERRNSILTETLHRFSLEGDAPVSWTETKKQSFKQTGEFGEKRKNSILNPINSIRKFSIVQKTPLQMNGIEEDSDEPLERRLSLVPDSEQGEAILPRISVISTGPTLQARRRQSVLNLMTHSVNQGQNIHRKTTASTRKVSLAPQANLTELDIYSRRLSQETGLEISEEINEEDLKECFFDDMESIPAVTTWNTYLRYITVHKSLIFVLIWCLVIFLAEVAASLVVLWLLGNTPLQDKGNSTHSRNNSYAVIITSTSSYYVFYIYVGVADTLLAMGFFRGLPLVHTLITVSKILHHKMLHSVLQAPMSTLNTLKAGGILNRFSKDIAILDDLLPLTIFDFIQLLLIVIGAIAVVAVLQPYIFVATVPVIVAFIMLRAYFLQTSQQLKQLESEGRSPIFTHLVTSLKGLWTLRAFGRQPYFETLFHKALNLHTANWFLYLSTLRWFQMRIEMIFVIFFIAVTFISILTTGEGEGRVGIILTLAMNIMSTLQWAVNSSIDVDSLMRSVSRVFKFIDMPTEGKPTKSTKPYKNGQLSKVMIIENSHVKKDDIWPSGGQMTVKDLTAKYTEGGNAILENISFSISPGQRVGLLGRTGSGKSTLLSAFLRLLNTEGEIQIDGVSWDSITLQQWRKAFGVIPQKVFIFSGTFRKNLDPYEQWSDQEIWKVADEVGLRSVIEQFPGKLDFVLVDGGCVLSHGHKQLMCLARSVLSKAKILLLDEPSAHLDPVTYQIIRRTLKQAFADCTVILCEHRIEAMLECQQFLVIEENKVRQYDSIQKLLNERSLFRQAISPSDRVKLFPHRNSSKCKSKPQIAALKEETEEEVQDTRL
T1 sequence (P13569 whole entry): as above
Chain of CFTR channel (P13569 whole entry): as above
T2 sequence (P13569 whole entry): as above

In the case of `Nc1ncnc2c1ncn2[C@@H]1O[C@H](COP(=O)(O)OP(=O)(O)NP(=O)(O)O)[C@@H](O)[C@H]1O` [AMP-PNP], the “binding affinity relative to ATP” value (CFTR [1]) is given as “one twentieth”.

In the case of `Nc1ncnc2c1ncn2[C@@H]1O[C@H](COP(=O)(O)OP(=O)(O)OP(=O)(O)O)[C@@H](O)[C@H]1O` [ATP, Adenosine 5'-triphosphate], the chloride secretion [2] is listed as “can stimulate chloride secretion”.

In the case of `O=P(O)(O)CP(=O)(O)O` [PCP, Methylenediphosphonic acid], the “maintenance of calcaemia after initial treatment” value ([3]; daily oral administration of 1600 mg) is listed as “calcaemia can be maintained”, the “efficacy in tumor-induced bone disease” value ([3]; one slow infusion of 600 mg) is listed as “shown efficacy” and the “frequency of prolonged bursts compared with PPi” value (wild-type CFTR; 75 nM PKA, 0.3 mM ATP) is listed as “less frequent”. The bursts of activity (wild-type CFTR; 75 nM PKA, 0.3 mM ATP) was “prolonged bursts of activity” and the “effects on Po and average burst duration (channel activity)” value (wild-type CFTR; nonhydrolyzable PPi analogs) was “did not achieve statistical significance”.

With `O=P([O-])([O-])OP(=O)([O-])[O-].[Na+].[Na+].[Na+].[Na+]` [PPi, Sodium pyrophosphate] the Cl- current (CFTR Cl^- channel [4]; 5 mM PPi in the presence of 0.3 mM ATP, channels phosphorylated by PKA, cytosolic side) was “reversible increase”, the Cl- current (CFTR Cl^- channel [4]; PPi in the absence of ATP) was “did not stimulate current” and the EC50 (CFTR Cl^- channel [4]; read-out: apparent EC50 of stimulation of Cl- current, in the presence of ATP, PKA-phosphorylated channels) was ~500 µM. For the same molecule, the “apical membrane Cl- current” value ([5]; 1 or 5 mM PPi added to basolateral solution after cAMP, 1 mM ATP) was “further increase in current”, the “apical membrane Cl- current” value ([5]; 1 or 5 mM PPi in the absence of cAMP) was “did not increase current above baseline levels” and the “time for current to decrease to baseline levels after removal of cAMP” value ([5]; in the continued presence of PPi) was ≤ 3 min. The Po (CFTR-ΔF508; before: 0.07±0.01, n=3) was 0.21±0.022, the average burst duration (CFTR-ΔF508; before: 125±19 ms, n=3) was 1023 ± 330 ms and the “increase of Po” value (CFTR-ΔF508; n=3) was “three-fold”. The “increase of average burst duration” value (CFTR-ΔF508; n=3) was “eight-fold”, the “stimulation of ΔF508 activity” value (CFTR-ΔF508; n=5) was “three-fold” and the duration of bursts (CFTR [6]) was “prolonged the duration of bursts”. For the same molecule, the “8-N3 ATP labeling of CFTR” value (human CFTR) was “concentration-dependent increase”, the “decrease of rate constant α2” value (CFTR channel; 0.3 mM ATP, 75 nM PKA) was 37% and the “rate constant β1 (transition from long closed state C1 to bursting state)” value (CFTR channel; 0.3 mM ATP, 75 nM PKA) was “increased β1”. The “rate constant β2” value (CFTR channel; 0.3 mM ATP, 75 nM PKA) was “did not alter β2”, the “rate constant α1 (rate of leaving the bursting mode)” value (CFTR channel; 0.3 mM ATP, 75 nM PKA, four single-channel patches) was “six-fold decrease” and the “change in Po within a burst” value (CFTR channel; n=4, not significantly different) was < 5%. For the same molecule, the “duration of the long closed states between bursts of activity” value (wild-type CFTR; 5 mM PPi, 0.3 mM ATP, 75 nM PKA) was “appeared to decrease the duration of the long closed states”, the “open state probability (Po)” value (wild-type CFTR; 5 mM PPi, 0.3 mM ATP, 75 nM PKA, before: 0.39±0.021, n=8, p<0.001) was 0.81±0.03 and the mean burst duration (wild-type CFTR; 5 mM PPi, 0.3 mM ATP, 75 nM PKA, before: 175±6 ms, n=8, p<0.001) was 1568 ± 219 ms. For the same molecule, the “single channel current amplitude” value (wild-type CFTR; after addition of 5 mM PPi, 0.3 mM ATP, 75 nM PKA, before: 0.90±0.05, n=8, p=0.812) was 0.91±0.02 pA and the whole-cell currents (CFTR Cl^- channel [7]) was “did not alter currents”.

For `O=c1ccn([C@@H]2O[C@H](COP(=O)(O)OP(=O)(O)OP(=O)(O)O)[C@@H](O)[C@H]2O)c(=O)[nH]1` [UTP], the chloride secretion [2] is listed as “can stimulate chloride secretion”.

In the case of `N=C(N)NC(=O)c1nc(Cl)c(N)nc1N` [amiloride], the “rate of disease progression, as measured by lung function tests” value (sodium channels) is given as “slight change in the rate of disease progression” and the safety (sodium channels) is given as “safe”.

For `CC(O)(P(=O)(O)O)P(=O)(O)O` [etidronate, 1-hydroxyethylidenebisphosphonic acid, reference compound], the “efficacy in tumor-induced bone disease” value ([3]; 500 mg/day for 3 days) is listed as “shown efficacy”, the “frequency of prolonged bursts compared with PPi” value (wild-type CFTR; 75 nM PKA, 0.3 mM ATP) is listed as “less frequent” and the bursts of activity (wild-type CFTR; 75 nM PKA, 0.3 mM ATP) is listed as “prolonged bursts of activity”.
